The source of these data is publication PMC4039310 (Molecular Systems Biology, 2013).

The subject of data set [1] is EGFR and ERK phosphorylation in PC9GR, HCC827 T790M and HCC4006 T790M cells. The data set is described as follows: Western blotting of signaling changes after 4 h drug treatment. In kind it is cell-based, human.
Description: Signaling changes were evaluated by western blotting after 4 h treatment. […] In (E and G), equal protein loading was confirmed by β-actin evaluation.
Immunoprecipitation and protein expression analysis
Whole cell lysates were prepared using ice-cold TNN-HS buffer (50 mM HEPES, pH 8.0, 150
protease inhibitor cocktail). Total cellular proteins were quantified using the Bio-Rad protein
assay. For immunoprecipitation, 600 μg of total protein was incubated with 6 μL of mouse
Biotechnology (Santa Cruz, CA) as the control overnight at 4°C with rotation and then incubated
with protein G-agarose beads (Roche, Indianapolis, IN) for 3 hours at 4°C. Beads were washed
five times with TNN-HS buffer, and immunoprecipitated proteins were eluted from beads with
30 μL of 2X SDS-PAGE sample buffer from Bio-Rad (Hercules, CA) at 95°C for 5 minutes.
pThr202/Tyr204-p44/42 MAPK, AKT, pSer473-AKT, and tSRC from Cell Signaling; GRB2,
Data set [2] concerns patients with leukemia and lung cancer. The conditions noted are these: cited from earlier work.
Data set [3] has as its target EGFR wild type (Homo sapiens, UniProt P00533). The data set is described as follows: In vitro kinase inhibition assay (Millipore KinaseProfiler). Conditions: wild-type allele; 0.0001 to 1 μM vs DMSO. In kind it is biochemical. How it is done:
(§1) In vitro kinase inhibition assays were performed on the Millipore KinaseProfiler™ platform.
(§2) In vitro kinase assays were conducted using Merck Millipore's KinaseProfiler service according to the protocols detailed at http://www.millipore.com/techpublications/tech1/pf3036.
(§3) Human Phospho-kinase array assay
(§4) PC9 and PC9GR cells were infected with lentivirus expressing shRNA against ARHG5 or scrambled shRNA as control for 48 hours. The relative levels of phosphorylation of 46 kinase phosphorylation sites determination was performed using Human Phospho-Kinase Array Kit (R&D Systems, Minneapolis, MN). Briefly, two-hundred micrograms of total cell lysate protein were incubated with Phospho-Kinase array membranes overnight at 4 C. Detection of proteins was accomplished using the Detection Antibody Cocktail and enhanced […]

For data set [4], the target named is T1, EGFR L858R (Homo sapiens, UniProt P00533, L858R).
T1 construct: purchased Merck Millipore (KinaseProfiler service)
The description is as above. It counts as biochemical. Conditions: activating point mutation L858R; 0.0001 to 1 μM vs DMSO. How it is done: as §1, §2, §3, §4

The target of data set [5] is T2, proteins in total cell lysates of PC9GR cells (Homo sapiens, UniProt P00533, DEL746-750/T790M).
T2 construct: endogenous in cells; host or cells: PC9GR
Kind of data set: Midostaurin affinity chromatography (drug pulldown) with LC-MS/MS, PC9GR lysate. It counts as binding. The conditions noted are these: PC9GR lysate, E746-A750+T790M EGFR. How it is done: (§5) LC-MS/MS analysis was performed in duplicate on a LTQ-Orbitrap MS (Thermo Fisher).
(§6) RNA isolated from PC9 and PC9GR cells were infected with either ARHG5 shRNA or scrambled shRNA and cDNA transcription using RNeasy Mini kit and QuantiTect Reverse Transcription kit from Qiagen (Valencia, CA). Human ARHG5 probe and human 18s rRNA endogenous control were purchased from Applied Biosystems (Foster City, CA). Quantitative real-time PCR reactions were run in triplicate on MicroAmp® Optical 96-well reaction plates with barcode using the 7900HT Fast real-time PCR system, and data were analyzed with 2.3 SDS software and normalized by 18s endogenous control. […]
(§7) aminomethylbenzoic acid in the presence of HATU and diisopropylethylamine and subsequent […]
(§8) on NHS-activated Sepharose 4 Fast Flow resin (GE Healthcare Bio-Sciences AB, Uppsala, […]
(§9) Affinity chromatography was performed as reported previously with total cell lysates of PC9 and PC9GR cells containing each 5.5 mg of protein.
(§10) Eluates were loaded on a SDS-PAGE gel, briefly run into the gel, and excised as a single piece before in-gel trypsin digestion and sample processing, which was done as described (Rix et al, LC-MS/MS analysis was performed in duplicate on a LTQ-Orbitrap MS (Thermo Fisher). […]
(§11) searching with the Mascot (Matrix Science) and Sequest (Thermo Fisher) search engines.
(§12) Kinase inhibition analysis […]

Data set [6] relates to proteins in total cell lysates of PC9GR cells. Described as above. In kind it is binding, human. The conditions noted are these: PC9 and PC9GR lysates. How it is done: as §5, §6, §7, §8, §9, §10, §11, §12
The target of data set [7] is proteins in total cell lysates of PC9 cells (Homo sapiens, UniProt P00533, DEL746-750). Kind of data set: Midostaurin affinity chromatography (drug pulldown) with LC-MS/MS, PC9 lysate. It counts as binding. Here is the method:
as §5, §6, §7, §8, §9, §10, §11, §12

Data set [8] relates to HCC4006ER cells. Here is the method: (§13) The ON-TARGET plus Smart pool custom siRNA library included siRNA pools containing four different siRNAs. This custom library and the ON-TARGET plus Non-Targeting Pool, non-targeting siRNA #4, and GAPD control siRNA pool were purchased from Thermo Scientific (Dharmacon). siRNA was delivered in triplicate to each well using a Precision^TM microplate liquid handler (BioTek). Plates were incubated for 5 days for cell viability assay and for 48 h for the pERK and pAKT in-cell western analyses. […] Viability and signaling changes were determined for each target gene after normalization on ON-TARGET plus Non-Targeting pool control siRNA. […]
(§14) The cell viability assay (CellTiter-Glo) was conducted according to the recommendations for the CellTiter-Glo Luminescent Cell Viability Assay from Promega (Madison, WI). Cells were plated […]
(§15) and either transfected with siRNA or infected with […] of lentiviruses plus 6 µg/mL polybrene (Sigma) for 5 days. Cell-Titer Glo reagent was added to each well, and luminescence was recorded using Victor plate reader from PerkinElmer (Walthom, MA). […]

The subject of data set [9] is PC9GR cells. Here is the method: as §13, §14, §15
Data set [10] deals with HCC827 cells. Here is the method:
as §13, §14, §15

Data set [11] has as its system HCC827ER cells. How it is done: as §13, §14, §15
The test system of data set [12] is HCC4006 cells. Here is the method: as §13, §14, §15
For data set [13], the system named is PC9 cells. Here is the method: as §13, §14, §15

“Also recorded” adds a separate entry of the source. Like-named read-outs stand apart in the source and are kept apart here.

As to `C[C@]12O[C@H](C[C@]1(O)CO)n1c3ccccc3c3c4c(c5c6ccccc6n2c5c31)CNC4=O` [CEP-701, lestaurtinib], the “effects on EGFR and downstream ERK phosphorylation” value (shortened to “effects”) in data set [1] is listed as “little to modest effects; also recorded: reductions in ERK phosphorylation at concentrations below those necessary for inhibition of EGFR phosphorylation”. Further, the tolerability entry in data set [2] (leukemia, ref Marshall et al, 2005) is given as “good tolerability”.
Take `C#Cc1cccc(Nc2ncnc3cc(OCCOC)c(OCCOC)cc23)c1` [Erlotinib, erlotinib]: the “effects” value in [1] is listed as “modest effects”.
As to `CO[C@@H]1[C@H](N(C)C(=O)c2ccccc2)C[C@H]2O[C@]1(C)n1c3ccccc3c3c4c(c5c6ccccc6n2c5c31)C(=O)NC4` [Midostaurin, midostaurin], the “effect on EGFR kinase activity” value in [3] and in data set [4] was “no substantial effect” each time. Moreover, the “EGFR binding to immobilized midostaurin” value in [5] is listed as “EGFR bound to midostaurin”; in data set [7] it was “no EGFR associated with midostaurin”. The “protein kinases observed in total in midostaurin pulldown” value in data set [6] was found to be 71. Besides, the “effects” value in data set [1] (western blotting after 4 h, three T790M EGFR cell lines) is recorded as “modest effects”. In [2] (patients with leukemia and lung cancer, ref Monnerat et al, 2004, Fischer et al, 2010), the tolerability entry is “well tolerated”.
Consider TITIN, for which the “HCC4006ER_Viability Viability %” value in data set [8] is listed as 71.94%. In data set [9], the “PC9GR_Viability Viability %” value came out at 62.56%. For the same compound, the “HCC827_Viability Viability %” value in data set [10] worked out at 67.29%. Also, the “HCC827ER_Viability Viability %” value in [11] worked out at 73.41%. Further, the “HCC4006_Viability Viability %” value in [12] amounted to 63.88%. Besides, the “PC9_Viability Viability %” value in data set [13] is listed as 69.56%.
